“And” between values parts separate entries of the source, which are not always exact repeats. Equal values may be shown once. Read-outs that look alike come from different tables or passages of the source. Marks after values point to notes of the source that are not given here.
What was measured:
LmTK [1] = target: T1, LmTK (Leishmania major, UniProt Q4QC75); assay: TK activity, enzyme coupled spectrophotometric assay (substrate kinetics); assay type: biochemical; conditions: for kcat / Vmax / Km: recombinant full-length LmTK; for Vmax / Km: 25°C, pH 7.4; for Activity measurements at 10 mM substrate concentration (Vmax) / rate of phosphorylation by LmTK, fold lower than the Vmax value exhibited by TbTK: 10 mM substrate
Method: (§1) TK activity was measured spectrophotometrically using an enzyme coupled assay in buffer containing 50 mM Tris-HCl pH 7.4, 5 mM MgCl2, 50 mM KCl, 1 mM DTT, 0.5 mM ATP, 0.5 mM phosphoenolpyruvate (PEP), 0.2 mM NADH, 0.2 mM thymidine (dThd), 2 U pyruvate kinase (PK), 4 U lactate dehydrogenase (LDH) and variable amounts of enzyme. The reaction rate (AU/min) was registered as a decrease in absorbance at 340nm (NADH extinction coefficient) at 25°C at pH 7.4 using a multicell Hewlett-Packard 8452 diode array UV-VIS spectrophotometer. Diluted stocks of frozen full-length LmTK were freshly prepared in assay buffer before the measurements. […]

hTK1 [2] = test system: hTK1; design: method as in Munch-Peterson et al. [43]; conditions: 37°C; ref Munch-Peterson et al. [43]; cited from earlier work
LmTK [3] = target: T1, LmTK; assay: TK activity, enzyme coupled spectrophotometric assay (substrate kinetics); assay type: biochemical; conditions: saturating dThd (25 μM)
[4] = test system: Leishmania intracellular amastigote; design: method as in PMID 20922414; conditions: cited from earlier work
LmTK [5] = target: T1, LmTK; assay: Inhibition assay of LmTK activity; assay type: biochemical; conditions: for IC50: 22.3 nM LmTK, pH 7.4
Method: TK activity was measured spectrophotometrically using an enzyme coupled assay in buffer containing 50 mM Tris-HCl pH 7.4, 5 mM MgCl2, 50 mM KCl, 1 mM DTT, 0.5 mM ATP, 0.5 mM phosphoenolpyruvate (PEP), 0.2 mM NADH, 0.2 mM thymidine (dThd), 2 U pyruvate kinase (PK), 4 U lactate dehydrogenase (LDH) and variable amounts of enzyme. The reaction rate (AU/min) was registered as a decrease in absorbance at 340nm (NADH extinction coefficient) at 25°C at pH 7.4 using a multicell Hewlett-Packard 8452 diode array UV-VIS spectrophotometer. Diluted stocks of frozen full-length LmTK were freshly prepared in assay buffer before the measurements.
The method consists in determining experimental values for the initial velocities, v, as described above, at increasing inhibitor concentrations, added before initiating the reaction. LmTK and dThd concentrations were 22.3 nM and 25 μM respectively. The concentration of inhibitor that inhibits the activity by 50% (IC50) was calculated.

hTK1 [6] = target: hTK1; design: method as in PMID 3457791; conditions: cited from earlier work
LmTK [7] = target: T1, LmTK; assay: Inhibition assay of LmTK activity; assay type: biochemical
TK from rat liver = test system: TK from rat liver; design: method as in PMID 4539354; conditions: similar conditions (equimolar dTTP and dThd); cited from earlier work
[8] = substrate: Cc1cn([C@H]2C[C@H](O)[C@@H](CO)O2)c(=O)[nH]c1=O; assay: TK activity, enzyme coupled spectrophotometric assay (substrate kinetics); assay type: biochemical, Leishmania major; conditions: other: recombinant full-length LmTK, 25°C, pH 7.4
Method: as §1

[9] = target: the molecule itself; assay: AUC; sedimentation velocity, unliganded C-terminally His-tagged LmTK (dTTP dialysed away), 0.15 and 0.45 mg/mL, SEC buffer (10 mM Tris pH 8.0, 200 mM NaCl, 1 mM DTT), 42 000 rpm, 20°C; c(s) analysis with SEDFIT
[10] = target: the molecule itself; assay: crystal structure; LmTK-dThd (with phosphate), 1.4 M Na/K PO4 pH 5.4, 1 mM dThd, 1 mM AppNHp, 3 mM MgCl2; space group P6(5)22, 2 protomers per asymmetric unit, 2.74 Å

O=c1[nH]c(=O)n([C@H]2C[C@H](O)[C@@H](CO)O2)cc1Br [5Br-2’dU]
kcat (LmTK [1]): 3.47 s⁻¹
Vmax (LmTK [1]): 6.17 ± 0.19 µmol/min/mg
Km (LmTK [1]; read-out: KM): 2 µM and 2.05 µM

O=c1[nH]c(=O)n([C@H]2C[C@H](O)[C@@H](CO)O2)cc1CO [5CH2OH-2’dU]
phosphorylation by LmTK (in words) (LmTK [1]): also phosphorylated
kcat (LmTK [1]): 2.82 s⁻¹
Vmax (LmTK [1]): 5.01 ± 1.30 µmol/min/mg
Km (LmTK [1]; read-out: KM): 96.7 ± 23.1 µM

O=c1[nH]c(=O)n([C@H]2C[C@H](O)[C@@H](CO)O2)cc1F [5F-2’dU]
kcat (LmTK [1]): 4.66 s⁻¹
Vmax (LmTK [1]): 8.29 ± 1.12 µmol/min/mg
Km (LmTK [1]; read-out: KM): 5.7 µM and 5.72 µM
Km (hTK1 [2]): 2200 nM
Vmax (hTK1 [2]): 8.99 µmol/min/mg
kcat (hTK1 [2]): 3.84 s⁻¹

C[C@H]1O[C@@H](n2cc(F)c(=O)[nH]c2=O)[C@H](O)[C@@H]1O [5F-5’dU]
phosphorylation by LmTK (in words) (LmTK [1]): is not
Activity measurements at 10 mM substrate concentration (Vmax) (LmTK [1]): 0.00 ^a μmol∙min^-1∙mg^-1

Nc1ncnc2c1ncn2[C@@H]1O[C@H](COP(=O)(O)OP(=O)(O)OP(=O)(O)O)[C@@H](O)[C@H]1O [ATP]
Hill coefficient (positive cooperativity) (LmTK [3]): 1.6
K0.5 (LmTK [3]; fit to Hill equation): 58.6 ± 2.4 µM

Cc1cn([C@H]2C[C@H](N=[N+]=[N-])[C@@H](CO)O2)c(=O)[nH]c1=O [AZT, 3’-azido-3’-deoxythymidine]
kcat (LmTK [1]): 1.97 s⁻¹
Km (LmTK [1]): 3 µM and 3.04 µM
Vmax (LmTK [1]): 3.52 ± 0.56 µmol/min/mg
Km (hTK1 [2]): 600 nM
Vmax (hTK1 [2]): 4.96 µmol/min/mg
kcat (hTK1 [2]): 2.12 s⁻¹
Leishmania intracellular amastigote growth (in words) [4]: inhibit Leishmania intracellular amastigote growth

Nc1ncnc2c1ncn2[C@@H]1O[C@H](CO)[C@@H](O)[C@H]1O [Ado, adenosine]
Activity measurements at 10 mM substrate concentration (Vmax) (LmTK [1]): 0.00 ^a μmol∙min^-1∙mg^-1
inhibition of LmTK (LmTK [5]; tested at 5 mM): no inhibition

Cc1cn([C@H]2C[C@H](O)[C@@H](COP(=O)(O)OP(=O)(O)OP(=O)(O)OP(=O)(O)OP(=O)(O)OC[C@H]3O[C@@H](n4cnc5c(N)ncnc54)[C@H](O)[C@@H]3O)O2)c(=O)[nH]c1=O [Ap5dT, P1-(5-adenosyl)-P5-(5-thymidyl) pentaphosphate]
Ki (hTK1 [6]): 120 nM
IC50 (LmTK [5]; 25 μM dThd, 0.5 mM ATP): 1.1 µM

Nc1ccn([C@@H]2O[C@H](CO)[C@@H](O)[C@H]2O)c(=O)n1 [Cyd]
Activity measurements at 10 mM substrate concentration (Vmax) (LmTK [1]): 0.00 ^a μmol∙min^-1∙mg^-1

Nc1nc2c(ncn2[C@@H]2O[C@H](CO)[C@@H](O)[C@H]2O)c(=O)[nH]1 [Guo]
Activity measurements at 10 mM substrate concentration (Vmax) (LmTK [1]): 0.00 ^a μmol∙min^-1∙mg^-1

O=c1ccn([C@@H]2O[C@H](CO)[C@@H](O)[C@H]2O)c(=O)[nH]1 [Urd]
kcat (LmTK [1]): 0.44 s⁻¹
Vmax (LmTK [1]): 0.79 ± 0.12 µmol/min/mg
Km (LmTK [1]; read-out: KM): 1460 ± 158 µM

Nc1ncnc2c1ncn2C1CC(O)C(CO)O1 (stereo not drawn) [dAdo]
Activity measurements at 10 mM substrate concentration (Vmax) (LmTK [1]): 0.01 ^a μmol∙min^-1∙mg^-1
rate of phosphorylation by LmTK, fold lower than the Vmax value exhibited by TbTK (LmTK [1]): 6 fold

Nc1ccn([C@H]2C[C@H](O)[C@@H](COP(=O)(O)OP(=O)(O)OP(=O)(O)O)O2)c(=O)n1 [dCTP]
IC50 (LmTK [5]; 25 μM dThd, 0.5 mM ATP): 1250 µM

Nc1ccn([C@H]2C[C@H](O)[C@@H](CO)O2)c(=O)n1 [dCyd]
Activity measurements at 10 mM substrate concentration (Vmax) (LmTK [1]): 0.07 ^a μmol∙min^-1∙mg^-1

Nc1nc2c(ncn2[C@H]2C[C@H](O)[C@@H](COP(=O)(O)OP(=O)(O)OP(=O)(O)O)O2)c(=O)[nH]1 [dGTP]
IC50 (LmTK [5]; 25 μM dThd, 0.5 mM ATP): 549 µM

Nc1nc2c(ncn2[C@H]2C[C@H](O)[C@@H](CO)O2)c(=O)[nH]1 [dGuo]
Activity measurements at 10 mM substrate concentration (Vmax) (LmTK [1]): 0.04 ^a μmol∙min^-1∙mg^-1
rate of phosphorylation by LmTK, fold lower than the Vmax value exhibited by TbTK (LmTK [1]): 10 fold

O=c1[nH]cnc2c1ncn2[C@H]1C[C@H](O)[C@@H](CO)O1 [dIno]
Activity measurements at 10 mM substrate concentration (Vmax) (LmTK [1]): 0.04 ^a μmol∙min^-1∙mg^-1
rate of phosphorylation by LmTK, fold lower than the Vmax value exhibited by TbTK (LmTK [1]): 23 fold

Cc1cn([C@H]2C[C@H](O)[C@@H](COP(=O)(O)O)O2)c(=O)[nH]c1=O [dTMP, thymidine monophosphate]
IC50 (LmTK [5]; 25 μM dThd, 0.5 mM ATP): 165 µM

Cc1cn([C@H]2C[C@H](O)[C@@H](COP(=O)(O)OP(=O)(O)OP(=O)(O)O)O2)c(=O)[nH]c1=O [dTTP, 2'-deoxythymidine triphosphate]
Hill coefficient (h) of inhibition (LmTK [5]; 25 μM dThd, 0.5 mM ATP): 1.6
IC50 (LmTK [5]; 25 μM dThd, 0.5 mM ATP): 3.8 ± 0.07 µM
fold increase in the K0.5 value for ATP compared to absence of dTTP (LmTK [7]; 3.5 μM dTTP, ATP 50–500 μM, 25 μM dThd): 5 fold
enzyme inhibition (LmTK [7]; 0.2 mM dTTP, equimolar 0.2 mM dThd, 0.5 mM ATP): 98%
inhibition (TK from rat liver): 87%

Cc1cn([C@H]2C[C@H](O)[C@@H](CO)O2)c(=O)[nH]c1=O [dThd, 2’-deoxythymidine]
KM fold lower than that reported for TbTK (LmTK [1]; comparison with TbTK ref 35): ~ 7 fold

O=c1ccn([C@H]2C[C@H](O)[C@@H](COP(=O)(O)OP(=O)(O)OP(=O)(O)O)O2)c(=O)[nH]1 [dUTP]
IC50 (LmTK [5]; 25 μM dThd, 0.5 mM ATP): 187 µM

O=c1ccn([C@H]2C[C@H](O)[C@@H](CO)O2)c(=O)[nH]1 [dUrd]
KM fold higher than that for dThd (LmTK [1]): approximately 10 fold
kcat (LmTK [1]): 3.06 s⁻¹
Vmax (LmTK [1]): 5.45 ± 0.77 µmol/min/mg
Km (LmTK [1]; read-out: KM): 11.1 ± 2.7 µM
Km (hTK1 [2]): 9000 nM
Vmax (hTK1 [2]): 11.87 µmol/min/mg
kcat (hTK1 [2]): 5.07 s⁻¹

B1: LmTK (Leishmania major) (protein)
chain: FRGRIELIIGPMFAGKTTELMRRVKREIHARRSCFVIKYSKDTRYDEHNVASHDQLMLRAQAAVSQLTEVRDTWKRFDVLAIDEGQFFSDLVDFCNTAADAGKVVMVSALDGDYRRKPFGQICELVPYCEAVDKLTAVCMMCHEQPACFTRRTVNVEQQELIGGADMYIATCRECYSKQQLPSIEEMRTQRMAIKEVEKRYLGLSDKRATASPQTPEKPAGGWCTKAGVATLPTMVKEGAASSGASAGMKSGRGLCEMQAFTTETPKYQRVEPACTASAASSE
Km [8]: 1.10 ± 0.33 µM
Vmax [8]: 4.66 µmol/min/mg
kcat [8]: 2.62 s⁻¹
kcat/Km [8]: 2.38e+06 M⁻¹ s⁻¹

B2: C-terminally His-tagged truncated L. major thymidine kinase (LmTK), amino acids 2-185 (enzyme, L. major strain Friedlin, UniProt Q4QC75 2-185, looked up)
chain: FRGRIELIIGPMFAGKTTELMRRVKREIHARRSCFVIKYSKDTRYDEHNVASHDQLMLRAQAAVSQLTEVRDTWKRFDVLAIDEGQFFSDLVDFCNTAADAGKVVMVSALDGDYRRKPFGQICELVPYCEAVDKLTAVCMMCHEQPACFTRRTVNVEQQELIGGADMYIATCRECYSKQQLPSI
notes: Thymidine kinase of Leishmania major strain Friedlin (GeneDB LmjF.21.1210), C-terminally truncated version spanning amino acids 2-185; Non-cleavable C-terminal His tag; Stabilised with dTTP/MgCl2 or dThd/AppNHp/MgCl2; also called C-terminal histagged LmTK; LmTK-dTTP; source: Sf9 insect cells (baculovirus), purified (HisTrap, Superdex 200 SEC); not shown: His6, C-terminal, kept
stoichiometry N [9]: 4

B3: Truncated L. major thymidine kinase (LmTK), amino acids 2-185, as crystallised with dThd/AppNHp and with AP5dT (enzyme, L. major strain Friedlin, UniProt Q4QC75 2-185, looked up)
chain: FRGRIELIIGPMFAGKTTELMRRVKREIHARRSCFVIKYSKDTRYDEHNVASHDQLMLRAQAAVSQLTEVRDTWKRFDVLAIDEGQFFSDLVDFCNTAADAGKVVMVSALDGDYRRKPFGQICELVPYCEAVDKLTAVCMMCHEQPACFTRRTVNVEQQELIGGADMYIATCRECYSKQQLPSI
notes: Thymidine kinase of Leishmania major strain Friedlin (GeneDB LmjF.21.1210), C-terminally truncated version spanning amino acids 2-185; both preparations (each with dThd, AppNHp, MgCl2) were used for crystallization screening; also called LmTK-dThd; LmTK-dThd-AppNHp; source: Sf9 insect cells (baculovirus), purified (HisTrap, Superdex 200 SEC)
stoichiometry N [10]: 4

Source: PMC4433323, “Structural and Kinetic Characterization of Thymidine Kinase from Leishmania major” (PLoS Neglected Tropical Diseases, 2015)
